US4319028A, “7-(2-(Substituted benzoyl)amino)acetamido)cephalosporins” (Eli Lilly and Company, priority 1976, dated 1982)
Converted amounts (≈) assume the structure as drawn. Like-named read-outs stand apart in the source and are kept apart here.

What was measured:
Pseudomonas Aeruginosa = experiment: Antibiotic activity (MIC), Gradient Plate in vitro method, Pseudomonas Aeruginosa; assay type: cell-based; settings: read-out: Minimum Inhibitory Concentration
Text: (§1) The values in the table are the minimum inhibitory concentrations (MIC) for the test compounds against the indicated microorganisms. The MIC values were obtained in the Gradient Plate in vitro method for determining antibiotic activity.

Aerobacter Aerogenes = experiment: Antibiotic activity (MIC), Gradient Plate in vitro method, Aerobacter Aerogenes; assay type: cell-based; settings: Klebsiella aerogenes, read-out: Minimum Inhibitory Concentration
Text: as §1

[1] = system: V32 (penicillin resistant Staphylococcus); experiment: Antibiotic activity (MIC), Gradient Plate in vitro method, V32; assay type: cell-based; settings: read-out: Minimum Inhibitory Concentration
Text: as §1, with “The antibiotic activity of the cephalosporin compounds of the present invention is illustrated by the data presented in Table I for representative compounds. The values” for “The values”
(§2) ^1 Test organisms V41, V32, and V84 are penicillin resistant

Escherichia coli = experiment: Antibiotic activity (MIC), Gradient Plate in vitro method, Escherichia coli; assay type: cell-based; settings: read-out: Minimum Inhibitory Concentration
Text: as §1

Shigella sp. = experiment: Antibiotic activity (MIC), Gradient Plate in vitro method, Shigella sp.; assay type: cell-based; settings: read-out: Minimum Inhibitory Concentration
Text: as §1, with “The antibiotic activity of the cephalosporin compounds of the present invention is illustrated by the data presented in Table I for representative compounds. The values” for “The values”

[2] = system: V84 (penicillin resistant Staphylococcus); experiment: Antibiotic activity (MIC), Gradient Plate in vitro method, V84; assay type: cell-based; settings: read-out: Minimum Inhibitory Concentration
Text: as §1, with “The antibiotic activity of the cephalosporin compounds of the present invention is illustrated by the data presented in Table I for representative compounds. The values” for “The values”
as §2

Titration (pKa) = assay type: physicochemical; settings: 66% dmf-34% h2o, titration (66% DMF-34% H2O)
[3] = system: X466 (methicillin resistant Staphylococcus); experiment: Antibiotic activity (MIC), Gradient Plate in vitro method, X466; assay type: cell-based; settings: read-out: Minimum Inhibitory Concentration
Text: The antibiotic activity of the cephalosporin compounds of the present invention is illustrated by the data presented in Table I for representative compounds. The values in the table are the minimum inhibitory concentrations (MIC) for the test compounds against the indicated microorganisms. The MIC values were obtained in the Gradient Plate in vitro method for determining antibiotic activity. […]

Klebsiella pneumoniae = experiment: Antibiotic activity (MIC), Gradient Plate in vitro method, Klebsiella pneumoniae; assay type: cell-based; settings: read-out: Minimum Inhibitory Concentration
Text: as §1

Salmonella heidelberg = experiment: Antibiotic activity (MIC), Gradient Plate in vitro method, Salmonella heidelberg; assay type: cell-based; settings: Salmonella enterica, read-out: Minimum Inhibitory Concentration
Text: as §1

Serratia marcescens = experiment: Antibiotic activity (MIC), Gradient Plate in vitro method, Serratia marcescens; assay type: cell-based; settings: read-out: Minimum Inhibitory Concentration
Text: (§3) The antibiotic activity of the cephalosporin compounds of the present invention is illustrated by the data presented in Table I for representative compounds. The values in the table are the minimum inhibitory concentrations (MIC) for the test compounds against the indicated microorganisms. The MIC values were obtained in the Gradient Plate in vitro method for determining antibiotic activity.

[4] = system: V41 (penicillin resistant Staphylococcus); experiment: Antibiotic activity (MIC), Gradient Plate in vitro method, V41; assay type: cell-based; settings: read-out: Minimum Inhibitory Concentration
Text: as §3, §2

[5] = Gradient Plate in vitro, V32, penicillin resistant Staphylococcus
[6] = Gradient Plate in vitro, V84, penicillin resistant Staphylococcus
[7] = first pKa, read-out: pKa (first value)
[8] = second pKa, read-out: pKa (second value)
[9] = Gradient Plate in vitro, V41, penicillin resistant Staphylococcus

Row | Compound | MIC (Pseudomonas Aeruginosa) | MIC (Aerobacter Aerogenes) | MIC [1, 5] | MIC (Escherichia coli) | MIC (Shigella sp.) | MIC [2, 6] | pKa (Titration (pKa); [7]) | pKa (Titration (pKa); [8]) | MIC [3] | MIC (Klebsiella pneumoniae) | MIC (Salmonella heidelberg) | MIC (Serratia marcescens) | MIC [4, 9] | MIC ([1]; Staphylococcus) | MIC ([2]; Staphylococcus) | MIC ([4]; Staphylococcus)
1 | Cn1nnnc1SCC1=C(C(=O)O)N2C(=O)C(NC(=O)[C@H](NC(=O)c3cccc(O)c3O)c3ccccc3)C2SC1 (stereo partly drawn) [Example 1, 7-[D-[2-Phenyl-2-[(2,3-dihydroxybenzoyl)amino]acetyl]amino]-3-[[(1-methyltetrazol-5-yl)thio]methyl]-3-cephem-4-carboxylic acid] | 13.8 µg/mL (≈ 23.1 µM) | 5.4 µg/mL (≈ 9.04 µM) | 132 µg/mL (≈ 221 µM) | 14.8 µg/mL (≈ 24.8 µM) | 3.7 µg/mL (≈ 6.19 µM) | 10.3 µg/mL (≈ 17.2 µM) | 5.31 | 8.73 | 136 µg/mL (≈ 228 µM) | 10 µg/mL (≈ 16.7 µM) | 0.5 µg/mL (≈ 0.837 µM) | 16.4 µg/mL (≈ 27.4 µM) | 15.1 µg/mL (≈ 25.3 µM) |  |  | 
2 | Cn1nnnc1SCC1=C(C(=O)O)N2C(=O)C(NC(=O)[C@H](NC(=O)c3ccc(O)c(O)c3)c3ccc(O)cc3)C2SC1 (stereo partly drawn) [Example 2, 7-[D-[2-(4-Hydroxyphenyl)-2-[(3,4-dihydroxybenzoyl)amino]acetyl]amino]-3-[[(1-methyltetrazol-5-yl)thio]methyl]-3-cephem-4-carboxylic acid] | 4.9 µg/mL (≈ 7.99 µM) | 4 µg/mL (≈ 6.52 µM) | 3.8 µg/mL (≈ 6.19 µM) | 8.5 µg/mL (≈ 13.9 µM) | 1 µg/mL (≈ 1.63 µM) | 3.2 µg/mL (≈ 5.21 µM) | 4.1 | 10.9 | 8.4 µg/mL (≈ 13.7 µM) | 0.8 µg/mL (≈ 1.3 µM) | 0.2 µg/mL (≈ 0.326 µM) | > 200 µg/mL | 3.6 µg/mL (≈ 5.87 µM) |  |  | 
3 | Cn1nnnc1SCC1=C(C(=O)O)N2C(=O)C(NC(=O)[C@H](NC(=O)c3cccc(O)c3O)c3ccc(O)cc3)C2SC1 (stereo partly drawn) [Example 3, 7-[D-[2-(4-Hydroxyphenyl)-2-[(2,3-dihydroxybenzoyl)amino]acetyl]amino]-3-[[(1-methyltetrazol-5-yl)thio]methyl]-3-cephem-4-carboxylic acid] | 5.3 µg/mL (≈ 8.64 µM) | 6.6 µg/mL (≈ 10.8 µM) | 23 µg/mL (≈ 37.5 µM) | 13.2 µg/mL (≈ 21.5 µM) | 7 µg/mL (≈ 11.4 µM) | 22 µg/mL (≈ 35.9 µM) | 5.02 | 8.83 | 130 µg/mL (≈ 212 µM) | 4.1 µg/mL (≈ 6.68 µM) | 1 µg/mL (≈ 1.63 µM) | 80 µg/mL (≈ 130 µM) | 23 µg/mL (≈ 37.5 µM) |  |  | 
4 | Cn1nnnc1SCC1=C(C(=O)O)N2C(=O)C(NC(=O)[C@H](NC(=O)c3ccccc3O)c3ccc(O)cc3)C2SC1 (stereo partly drawn) [Example 4, 7-[D-[2-(4-Hydroxyphenyl)-2-[(2-hydroxybenzoyl)amino]acetyl]amino]-3-[[(1-methyltetrazol-5-yl)thio]methyl]-3-cephem-4-carboxylic acid] | 104 µg/mL (≈ 174 µM) | 49 µg/mL (≈ 82 µM) |  | 60 µg/mL (≈ 100 µM) | 33 µg/mL (≈ 55.2 µM) | 2.2 µg/mL (≈ 3.68 µM) | 5.09 | 10 | 41 µg/mL (≈ 68.6 µM) | 29 µg/mL (≈ 48.5 µM) | 32.5 µg/mL (≈ 54.4 µM) | > 200 µg/mL | 4.6 µg/mL (≈ 7.7 µM) | 4 µg/mL (≈ 6.69 µM) |  | 
5 | Cc1nnc(SCC2=C(C(=O)O)N3C(=O)C(NC(=O)[C@H](NC(=O)c4c(O)cccc4O)c4ccc(O)cc4)C3SC2)s1 (stereo partly drawn) [Example 5, 7-[D-[2-(4-Hydroxyphenyl)-2-[(2,6-dihydroxybenzoyl)-amino]acetyl]amino]-3-[[(5-methyl-1,3,4-thiadiazol-2-yl)thio]methyl]-3-cephem-4-carboxylic acid] | 27.5 µg/mL (≈ 43.7 µM) | 110 µg/mL (≈ 175 µM) | 4.6 µg/mL (≈ 7.31 µM) | 96 µg/mL (≈ 152 µM) | 48 µg/mL (≈ 76.2 µM) | 1.3 µg/mL (≈ 2.06 µM) | 5.2 | 9.13 | 60 µg/mL (≈ 95.3 µM) | 29.5 µg/mL (≈ 46.8 µM) | 82 µg/mL (≈ 130 µM) | > 200 µg/mL | 3.7 µg/mL (≈ 5.88 µM) |  |  | 
6 | Cc1nnc(SCC2=C(C(=O)O)N3C(=O)C(NC(=O)[C@H](NC(=O)c4cc(O)c(O)c(O)c4)c4ccc(O)cc4)C3SC2)s1 (stereo partly drawn) [Example 6, 7-[D-[2-(4-Hydroxyphenyl)-2-[(3,4,5-trihydroxybenzoyl)-amino]acetyl]amino]-3-[[(5-methyl-1,3,4-thiadiazol-2-yl)thio]methyl]-3-cephem-4-carboxylic acid] | 6 µg/mL (≈ 9.29 µM) | 8.4 µg/mL (≈ 13 µM) | 8.6 µg/mL (≈ 13.3 µM) | 21.7 µg/mL (≈ 33.6 µM) | 5.8 µg/mL (≈ 8.98 µM) | 3.2 µg/mL (≈ 4.96 µM) | 4.88 |  | 130 µg/mL (≈ 201 µM) | 3.9 µg/mL (≈ 6.04 µM) | 0.7 µg/mL (≈ 1.08 µM) | > 200 µg/mL | 6.6 µg/mL (≈ 10.2 µM) |  |  | 
7 | Cc1nnc(SCC2=C(C(=O)O)N3C(=O)C(NC(=O)[C@H](NC(=O)c4ccc(O)c(O)c4O)c4ccc(O)cc4)C3SC2)s1 (stereo partly drawn) [Example 7, 7-[D-[2-(4-Hydroxyphenyl)-2-[(2,3,4-trihydroxybenzoyl)-amino]-acetyl]amino]-3-[[(5-methyl-1,3,4-thiadiazol-2-yl)thio]methyl]-3-cephem-4-carboxylic acid] | 25 µg/mL (≈ 38.7 µM) | 57.5 µg/mL (≈ 89.1 µM) | 60 µg/mL (≈ 92.9 µM) | 100 µg/mL (≈ 155 µM) | 50 µg/mL (≈ 77.4 µM) | 25 µg/mL (≈ 38.7 µM) |  |  | > 200 µg/mL | 52.5 µg/mL (≈ 81.3 µM) | 16 µg/mL (≈ 24.8 µM) | > 200 µg/mL | 60 µg/mL (≈ 92.9 µM) |  |  | 
8 | Cc1nnc(SCC2=C(C(=O)O)N3C(=O)C(NC(=O)[C@H](NC(=O)c4c(O)cc(O)cc4O)c4ccc(O)cc4)C3SC2)s1 (stereo partly drawn) [Example 8, 7-[D-[2-(4-Hydroxyphenyl)-2-[(2,4,6-trihydroxybenzoyl)-amino]acetyl]amino]-3-[[(5-methyl-1,3,4-thiadiazol-2-yl)thio]methyl]-3-cephem-4-carboxylic acid] | 100 µg/mL (≈ 155 µM) | 140 µg/mL (≈ 217 µM) |  | 120 µg/mL (≈ 186 µM) | 100 µg/mL (≈ 155 µM) |  |  |  | 120 µg/mL (≈ 186 µM) | 110 µg/mL (≈ 170 µM) | 110 µg/mL (≈ 170 µM) | > 200 µg/mL | 10.5 µg/mL (≈ 16.3 µM) | 10 µg/mL (≈ 15.5 µM) | 10 µg/mL (≈ 15.5 µM) | 
9 | Cn1c(SCC2=C(C(=O)O)N3C(=O)C(NC(=O)[C@H](NC(=O)c4cccc(O)c4O)c4ccc(O)cc4)C3SC2)nnc(O)c1=O (stereo partly drawn) [Example 9, 7-[D-[2-(4-Hydroxyphenyl)-2-[(2,3-dihydroxybenzoyl)-amino]acetyl]amino]-3-[[(4,5-dihydro-6-hydroxy-4-methyl-5-oxo-1,2,4-triazin-3-yl)thio]methyl]-3-cephem-4-carboxylic acid] | 124 µg/mL (≈ 189 µM) | 11 µg/mL (≈ 16.8 µM) | 14 µg/mL (≈ 21.3 µM) | 22.5 µg/mL (≈ 34.3 µM) | 8 µg/mL (≈ 12.2 µM) | 11.6 µg/mL (≈ 17.7 µM) | 4.99 | 8.89 | > 200 µg/mL | 3.9 µg/mL (≈ 5.94 µM) | 1 µg/mL (≈ 1.52 µM) | > 200 µg/mL | 16.2 µg/mL (≈ 24.7 µM) |  |  | 
10 | Cc1nnc(SCC2=C(C(=O)O)N3C(=O)C(NC(=O)[C@H](NC(=O)c4cccc(O)c4)c4ccc(O)cc4)C3SC2)s1 (stereo partly drawn) [Example 10, 7-[D-[2-(4-Hydroxyphenyl)-2-[(3-hydroxybenzoyl)amino]-acetyl]amino]-3-[[(5-methyl-1,3,4-thiadiazol-2-yl)thio]-methyl]-3-cephem-4-carboxylic acid] | > 200 µg/mL | 65.5 µg/mL (≈ 107 µM) |  | 28.8 µg/mL (≈ 46.9 µM) | 10.4 µg/mL (≈ 16.9 µM) |  | 5.02 | 11.9 | 92 µg/mL (≈ 150 µM) | 16.8 µg/mL (≈ 27.4 µM) | 26 µg/mL (≈ 42.4 µM) | > 200 µg/mL |  | 1 µg/mL (≈ 1.63 µM) | 1 µg/mL (≈ 1.63 µM) | 1 µg/mL (≈ 1.63 µM)
11 | Cc1nnc(SCC2=C(C(=O)O)N3C(=O)C(NC(=O)[C@H](NC(=O)c4ccc(N)c(N)c4)c4ccc(O)cc4)C3SC2)s1 (stereo partly drawn) [Example 13, 7-[D-[2-(4-Hydroxyphenyl)-2-[(3,4-diaminobenzoyl)amino]-acetyl]amino]-3-[[(5-methyl-1,3,4-thiadiazol-2-yl)-thio]methyl]-3-cephem-4-carboxylic acid] | 31.5 µg/mL (≈ 50.2 µM) | 33.2 µg/mL (≈ 52.9 µM) | 5.2 µg/mL (≈ 8.28 µM) | 19 µg/mL (≈ 30.3 µM) | 13.8 µg/mL (≈ 22 µM) |  |  |  | 126 µg/mL (≈ 201 µM) | 14.8 µg/mL (≈ 23.6 µM) | 14.6 µg/mL (≈ 23.3 µM) | 116 µg/mL (≈ 185 µM) | 4.6 µg/mL (≈ 7.33 µM) |  | 5 µg/mL (≈ 7.97 µM) | 
